# In ChEMBL document CHEMBL1201862, “PubChem BioAssay data set” (2004):
#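 All cell lines were grown in 96-well plates and treated with compound for 48 hours. The concentration for 50% growth inhibition is given as GI50.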 Active and inactive are the calls of the source. Rule as the data show it: active = GI50 up to about 1.1 µM and inactive = higher.
# Key:
# Assay in all cases: DTP human tumour cell line panel, 48 h
# ACHN = system: ACHN
# DU-145 = system: DU-145
# HOP-92 = system: HOP-92
# Hs-578T = system: Hs-578T
# IGROV-1 = system: IGROV-1
# MCF7 = system: MCF7
# Malme-3M = system: Malme-3M
# NCI-H226 = system: NCI-H226
# NCI-H522 = system: NCI-H522
# NCI/ADR-RES = system: NCI/ADR-RES
# PC-3 = system: PC-3
# RXF 393 = system: RXF 393
# SF-268 = system: SF-268
# SK-MEL-2 = system: SK-MEL-2
# SK-OV-3 = system: SK-OV-3
# SN12C = system: SN12C
# SNB-75 = system: SNB-75
# SR = system: SR
# CCRF-CEM = system: CCRF-CEM
# MOLT-4 = system: MOLT-4
Compound,GI50 (ACHN),GI50 (DU-145),GI50 (HOP-92),GI50 (Hs-578T),GI50 (IGROV-1),GI50 (MCF7),GI50 (Malme-3M),GI50 (NCI-H226),GI50 (NCI-H522),GI50 (NCI/ADR-RES),GI50 (PC-3),GI50 (RXF 393),GI50 (SF-268),GI50 (SK-MEL-2),GI50 (SK-OV-3),GI50 (SN12C),GI50 (SNB-75),GI50 (SR),GI50 (CCRF-CEM),GI50 (MOLT-4)
NCCSCCc1ccccc1,> 100 µM (inactive),> 100 µM (inactive),72.1 µM (inactive),> 100 µM (inactive),> 100 µM (inactive),> 100 µM (inactive),> 100 µM (inactive),> 100 µM (inactive),58.6 µM (inactive),> 100 µM (inactive),> 100 µM (inactive),> 100 µM (inactive),> 100 µM (inactive),> 100 µM (inactive),> 100 µM (inactive),> 100 µM (inactive),> 100 µM (inactive),88.3 µM (inactive),,
COc1cc(C(=O)c2cocc2C(=O)c2ccc3c(c2)OCO3)cc(OC)c1OC,0.977 µM (active),1.17 µM (inactive),2.69 µM (inactive),0.274 µM (active),1.5 µM (inactive),0.217 µM (active),0.312 µM (active),1.8 µM (inactive),0.268 µM (active),0.142 µM (active),0.355 µM (active),0.67 µM (active),0.802 µM (active),0.619 µM (active),2.49 µM (inactive),1.49 µM (inactive),0.336 µM (active),0.611 µM (active),0.444 µM (active),0.991 µM (active)
Sc1ncc2[nH]nnc2n1,> 100 µM (inactive),> 100 µM (inactive),> 100 µM (inactive),> 100 µM (inactive),> 100 µM (inactive),> 100 µM (inactive),> 100 µM (inactive),> 100 µM (inactive),> 100 µM (inactive),> 100 µM (inactive),> 100 µM (inactive),> 100 µM (inactive),> 100 µM (inactive),,,> 100 µM (inactive),> 100 µM (inactive),> 100 µM (inactive),> 100 µM (inactive),> 100 µM (inactive)
CCCCCCNCCCNc1c2ccccc2nc2cccc([N+](=O)[O-])c12,0.0132 µM (active),0.00537 µM (active),0.0211 µM (active),0.0448 µM (active),0.00873 µM (active),0.00376 µM (active),0.0206 µM (active),0.0547 µM (active),0.0121 µM (active),0.33 µM (active),0.0163 µM (active),0.0148 µM (active),0.0163 µM (active),0.0181 µM (active),0.051 µM (active),0.0173 µM (active),0.0485 µM (active),0.0256 µM (active),0.0229 µM (active),0.00658 µM (active)
NNc1nnc(-c2nnc(NN)o2)o1,> 10 µM (inactive),> 10 µM (inactive),> 10 µM (inactive),> 10 µM (inactive),> 10 µM (inactive),> 10 µM (inactive),> 10 µM (inactive),> 10 µM (inactive),,> 10 µM (inactive),> 10 µM (inactive),> 10 µM (inactive),> 10 µM (inactive),,,> 10 µM (inactive),,> 10 µM (inactive),> 10 µM (inactive),> 10 µM (inactive)
CC1(C)C/C(=N/O)c2c(nc3ccc4ccccc4c3c2-c2ccc(Cl)cc2)C1,6.79 µM (inactive),16.5 µM (inactive),18.3 µM (inactive),23.3 µM (inactive),14.9 µM (inactive),11.2 µM (inactive),,21 µM (inactive),15.3 µM (inactive),17.5 µM (inactive),25.9 µM (inactive),17.6 µM (inactive),14.2 µM (inactive),43.7 µM (inactive),15 µM (inactive),10.8 µM (inactive),16.2 µM (inactive),4.75 µM (inactive),10.9 µM (inactive),18.2 µM (inactive)
CC1OC(O[C@@H]2OC=C(C=O)[C@@]3(O)CC[C@H](C)[C@@H]23)C(O)C(O)C1O (stereo partly specified),> 100 µM (inactive),> 100 µM (inactive),> 100 µM (inactive),> 100 µM (inactive),> 100 µM (inactive),> 100 µM (inactive),> 100 µM (inactive),> 100 µM (inactive),> 100 µM (inactive),> 100 µM (inactive),> 100 µM (inactive),> 100 µM (inactive),> 100 µM (inactive),> 100 µM (inactive),> 100 µM (inactive),> 100 µM (inactive),> 100 µM (inactive),> 100 µM (inactive),> 100 µM (inactive),> 100 µM (inactive)
Cc1ccccc1C(=O)N1CCc2c([nH]c3ccccc23)C1,34.9 µM (inactive),25.6 µM (inactive),15.1 µM (inactive),29 µM (inactive),25.7 µM (inactive),21 µM (inactive),24.8 µM (inactive),21.8 µM (inactive),19.1 µM (inactive),22.6 µM (inactive),14 µM (inactive),18.6 µM (inactive),35.6 µM (inactive),12.8 µM (inactive),32.4 µM (inactive),17.2 µM (inactive),20.6 µM (inactive),13.7 µM (inactive),24.8 µM (inactive),27.4 µM (inactive)
CC1CCCC(C(O)CC2CC(=O)NC(=O)C2)C1O (stereo unspecified),> 100 µM (inactive),> 100 µM (inactive),> 100 µM (inactive),> 100 µM (inactive),> 100 µM (inactive),> 100 µM (inactive),> 100 µM (inactive),> 100 µM (inactive),,> 100 µM (inactive),> 100 µM (inactive),> 100 µM (inactive),> 100 µM (inactive),> 100 µM (inactive),> 100 µM (inactive),> 100 µM (inactive),> 100 µM (inactive),> 100 µM (inactive),> 100 µM (inactive),> 100 µM (inactive)
CC(=O)OCC1OC(n2ncc(=O)[nH]c2=O)C(OC(C)=O)C1OC(C)=O (stereo unspecified),4.9 µM (inactive),23 µM (inactive),> 100 µM (inactive),19.1 µM (inactive),17.8 µM (inactive),15.6 µM (inactive),> 100 µM (inactive),15.3 µM (inactive),19.1 µM (inactive),61.7 µM (inactive),68.9 µM (inactive),> 100 µM (inactive),5.33 µM (inactive),,61.2 µM (inactive),34.4 µM (inactive),40.3 µM (inactive),5.36 µM (inactive),0.718 µM (active),1.32 µM (inactive)
O=C1NC(N2CCCC(CO)C2)=N/C1=C\c1cccs1 (stereo unspecified),> 100 µM (inactive),> 100 µM (inactive),> 100 µM (inactive),> 100 µM (inactive),> 100 µM (inactive),> 100 µM (inactive),> 100 µM (inactive),> 100 µM (inactive),> 100 µM (inactive),> 100 µM (inactive),> 100 µM (inactive),> 100 µM (inactive),> 100 µM (inactive),> 100 µM (inactive),> 100 µM (inactive),> 100 µM (inactive),98.2 µM (inactive),> 100 µM (inactive),> 100 µM (inactive),> 100 µM (inactive)
CC(=O)/C(=C/NC(=S)Nc1ccccc1)C(=O)Nc1ccccc1C,> 100 µM (inactive),> 100 µM (inactive),99.1 µM (inactive),> 100 µM (inactive),> 100 µM (inactive),> 100 µM (inactive),> 100 µM (inactive),> 100 µM (inactive),> 100 µM (inactive),> 100 µM (inactive),> 100 µM (inactive),> 100 µM (inactive),91 µM (inactive),> 100 µM (inactive),> 100 µM (inactive),> 100 µM (inactive),49.9 µM (inactive),> 100 µM (inactive),> 100 µM (inactive),> 100 µM (inactive)
CCOC(=O)c1c(N2CCCC2)[nH]c(=O)c(C(c2ccc(N(C)C)cc2)c2c(O)c(C(=O)OCC)c(N3CCCC3)[nH]c2=O)c1O,> 100 µM (inactive),> 100 µM (inactive),> 100 µM (inactive),> 100 µM (inactive),,> 100 µM (inactive),> 100 µM (inactive),> 100 µM (inactive),> 100 µM (inactive),> 100 µM (inactive),> 100 µM (inactive),> 100 µM (inactive),> 100 µM (inactive),,> 100 µM (inactive),> 100 µM (inactive),48.5 µM (inactive),> 100 µM (inactive),> 100 µM (inactive),> 100 µM (inactive)
OCC1C(OCc2ccccc2)C(OCc2ccccc2)C(OCc2ccccc2)CN1Cc1ccccc1 (stereo unspecified),3.38 µM (inactive),> 100 µM (inactive),9.64 µM (inactive),24.6 µM (inactive),35.5 µM (inactive),14.2 µM (inactive),27.9 µM (inactive),33.8 µM (inactive),27.4 µM (inactive),26.7 µM (inactive),13 µM (inactive),17.4 µM (inactive),65.5 µM (inactive),,> 100 µM (inactive),14.5 µM (inactive),13 µM (inactive),8.83 µM (inactive),28.8 µM (inactive),7.62 µM (inactive)
COc1ccc(CCc2cc(OC)c(OC)c(OC)c2)cc1,0.824 µM (active),0.0935 µM (active),0.805 µM (active),0.0438 µM (active),0.0612 µM (active),0.0283 µM (active),0.271 µM (active),0.386 µM (active),0.0195 µM (active),0.0622 µM (active),0.043 µM (active),0.0205 µM (active),0.423 µM (active),0.146 µM (active),0.0236 µM (active),0.114 µM (active),0.0395 µM (active),< 0.01 µM (active),0.0204 µM (active),0.0331 µM (active)
